Data: patent US20240285615A1, “MEDICAMENTS COMPRISING GLYCOSIDASE INHIBITORS” (priority 2021, published 2024)

What was measured:
[1] = tested on: patients with probable PSP Richardson's syndrome; test: Phase 2 clinical trial in progressive supranuclear palsy (Example 6); format: in vivo, human; conditions: 300 mg or 150 mg TID PO, clinical study protocol
Text: CLINICAL STUDY PROTOCOL: A Randomized, Double-blind, Placebo-Controlled Study to Evaluate the Efficacy and Safety of compound of formula (I) for the Treatment of Progressive Supranuclear Palsy
PRIMARY OBJECTIVE: To evaluate the safety and tolerability of two different doses of compound (I) compared with placebo for the treatment of PSP
STUDY DESIGN: This is a randomized, multi-centre, double-blind, placebo-controlled trial to study the safety and tolerability of compound (I) in patients with probable PSP Richardson's syndrome. Approximately 40 patients (40 to 85 years of age, inclusive) are randomized in a 2:1:1 ratio to 300 mg or 150 mg or placebo TID PO with meals.
For all subjects, a screening visit is performed up to 6 weeks prior to dosing to determine eligibility. Eligible patients take investigational product (compound (I) or placebo) orally daily for about 12 weeks. Safety and tolerability data are collected at required visits to the study site. In addition, an “at home visit” for safety assessment and blood draw is organized. An open-label extension period of 52 weeks takes place upon completion of the initial double-blind treatment period. […]
PRIMARY SAFETY ENDPOINT: Frequency of treatment-emergent adverse events recorded in the three treatment arms at Week 12.

[2] = tested on: kainate-induced seizure rat model; conditions: rats, daily oral gavage for 3 consecutive days
Procedure: Compound of formula (I) is evaluated in the kainate-induced seizure rat model. Sprague-Dawley rats are treated with intraperitoneal injection of kainate (10 mg/kg) to induce seizure or with saline as vehicle control. […] The onset of status epilepticus (SE) is defined as the time from kainate injection to the occurrence of continuous seizure activity (Racine score 4-5) over a period of 4 h. Four weeks following the administration of kainate, animals undergo EEG surgery for electrodes implantation at the surface of the dura mater. […] Then, the animals receive a daily administration (oral gavage) of compound formula (I) for 3 consecutive days during which, cerebral activity is monitored by EEG recording. Animals are finally sacrificed ninety-six hours (4 days) post-baseline.

[3] = tested on: hTauP301L-Tg mouse model of tauopathy; test: In vivo effect on the hTauP301L-Tg mouse model of tauopathy; conditions: hTauP301L-Tg mice
Text: Concomitant to the pathology, these mice progressively develop motoric deficits like clasping behaviour accompanied by a diminution of general mobility, and die prematurely at the age of 8-11 months (reMYND unpublished data, Terwel et al., 2005).

[4] = tested on: transgenic mice (Line 61) overexpressing wildtype human alpha-synuclein; test: In vivo treatment efficacy on Parkinson disease (PD) model (Line 61); conditions: Line 61 mice, daily oral gavage for 24 weeks
Text: The transgenic mice (Line 61) which overexpresses wildtype human alpha-synuclein protein (hAsyn) under the regulatory control of the murine Thy-1 promoter is a widely used Parkinson disease (PD) animal model. […] In addition, motor deficits such as lack of coordination, diminution of strength, and unbalance are also observed from 2 to 4 months of age (Fleming et al. 2004, J Neurosci 24 (42): 9434-40). Treatment effect of compound of formula (I) is based on the assessment of the behaviour (motoric performance), as well as the quantification of aggregated hAsyn and pser129-Asyn deposits by histology and by the biochemical determination of aggregated hAsyn present in the brain “insoluble fraction” of treated animals.
For this, transgenic Line 61 mice (4 weeks of age) and age/sex-matched non-transgenic littermates are first tested in the Irwin testing battery test, rotarod, wire suspension, beam walk and pasta gnawing test at baseline. […] Right hemibrains are embedded in OCT medium and 10 μm cryosections are collected to quantify the level of hAsyn and pser129-Asyn deposits by immunohistochemistry in the hippocampus and in the cortex of treated animals. […]

[5] = Compatibility studies and short-term stability studies of drug substance with excipients; format: physicochemical
Text: Compound (I) is a drug substance with suitable physical, biopharmaceutical, and chemical characteristics for development of an immediate release capsule formulation. […] The blend powder to be filled into the capsules contains common excipients: microcrystalline cellulose, croscarmellose sodium, colloidal silicon dioxide and magnesium stearate. All ingredients were used in concentrations typical for solid oral formulations. The selection of excipients, for the capsule powder, was based on compatibility studies and short-term stability studies. […] The final DP contains the following excipients for the tablet core: microcrystalline cellulose, povidone, croscarmellose sodium, copovidone, silica colloidal anhydrous and sodium stearyl fumarate. A water-based film coat made from hypromellose, macrogol, titanium dioxide and iron oxide was sprayed onto the core tablets. All ingredients were used in quantities typical for oral solid formulations. The selection of excipients was further backed-up by compatibility studies and short-term stability studies of binary mixtures for key ingredients.

## CC(=O)Nc1nnc(N2CCN([C@@H](C)c3ccc4c(c3)OCO4)CC2)s1 [Compound (I)]
[1]
  safety and tolerability of the preferred dosage regimen: especially safe and well tolerated
[2]
  epileptic activity by EEG (number of seizures, seizure duration, interictal spike frequency): reducing the epileptic activity
[3]
  extent of neuronal pathology: diminishing the extent of neuronal pathology
  motoric function (clasping behaviour, beam walk): improvement in motoric function
  survival rate: significant benefit in survival rate
[4]
  behavioural tests (Irwin battery, rotarod, wire suspension, beam walk, pasta gnawing): functional benefit (motor improvement)
  intraneuronal aggregated pser129-Asyn deposits by histology: reduction of the number of intraneuronal aggregated pser129-Asyn deposits
[5]
  stability of the drug substance: suitably stable
[5]; capsule powder: microcrystalline cellulose, croscarmellose sodium, colloidal silicon dioxide, magnesium stearate
  compatibility with excipients: no incompatibility with the chosen excipients
